In patent US7030085B2, “Thiopeptide compounds” (Astellas Pharma INC, priority 2001, dated 2006):
Converted amounts (≈) assume the structure as drawn.

Key:
[1] = tested on: Staphylococcus aureus Smith; assay: Remedial effect for infected mouse model; format: in vivo; conditions: male ICR(CD-1) mice infected intraabdominally with S. aureus Smith; compound subcutaneous two hours after infection; observed 4 to 7 days after treatment; probit method
Procedure: Remedial Effect for Infected Mouse Model
The compounds of the invention, QN3323-A, QN3323-B, thiocillin I and thiocillin II were tested using an infected mouse model to determine the effectivness thereof. Concretely, cells of Staphylococcus aureus Smith cultivated for 16 hours at 37° C. were suspended in 3% butamutin (by Tokyo Kasei), and the resulting cell suspension was intraabdominally infected into 4-week old male ICR(CD-1) mice (from Charles River of Japan, SPF) (about 3×10^6 CFU/mouse). Two hours after the infection, the compound of the invention dissolved in a solvent (10% DMSO, 10% HCO-60 (by Nikko Chemicals), 80% physiological saline), was subcutaneously administered to each mouse. On 4 to 7 days after the treatment, the mice were observed, and their ED50 value was calculated according to probit method.

[2] = tested on: Staphylococcus aureus CAY32001 (MRSA); assay: MIC determination, standard method of the Chemotherapy Society of Japan; format: cell-based
Text: (§1) The minimal inhibitory concentration (MIC) of the compounds of the invention obtained in Example 1, QN3323A, QN3323-B, QN3323-Y1, thiocillin I, thiocillin II and micrococcin P2 against Staphylococcus aureus FDA209P (S. aureus), Staphylococcus epidermidis IID866 (S. epidezmidis), Enterococcus faecalis IID682 (E. Faecalis) and Enterococcus faecium CAY09—1 (E. faecium), as well as against drug-resistant bacteria, Staphylococcus aureus CAY32001 (MRSA) (S. aureus (MRSA)) and Enterococcus faecium CAY09—2 (VRE) (E. faecium (VRE)) was measured according to the standard method of the Chemotherapy Society of Japan (CHEMOTHERAPY, 1981, 29(1):76, revised minimal inhibitory concentration (MIC) determination method). The cells of S. aureus (MRSA) were incubated at 32° C.

[3] = tested on: Enterococcus faecium CAY09—2 (VRE); assay: as above; format: cell-based
Text: as §1

[4] = tested on: Staphylococcus epidermidis IID866; assay: as above; format: cell-based
Text: as §1

[5] = tested on: Staphylococcus aureus FDA209P; assay: as above; format: cell-based
Text: as §1

[6] = tested on: Enterococcus faecalis IID682; assay: as above; format: cell-based
Text: as §1

[7] = tested on: Enterococcus faecium CAY09—1; assay: as above; format: cell-based
Text: as §1

[8] = S. aureus CAY32001 (MRSA), incubated at 32° C.

Row | MIC [2, 8] | MIC ([3]; E. faecium CAY09—2 (VRE)) | Structure (SMILES) | ED5O [1] | MIC ([2]; Staphylococcus aureus, MRSA) | MIC [4] | MIC [5] | MIC [6] | MIC ([3]; Enterococcus faecium, VRE) | MIC [7]
1 | 0.78 µg/mL (≈ 0.672 µM) | 0.78 µg/mL (≈ 0.672 µM) | C/C=C(\NC(=O)c1csc(-c2csc(-c3ccc4c(n3)-c3csc(n3)[C@H]([C@@H](C)O)NC(=O)c3csc(n3)[C@H](C(C)(C)O)NC(=O)c3csc(n3)/C(=C/C)NC(=O)[C@H]([C@@H](C)O)NC(=O)c3csc-4n3)n2)n1)C(=O)NC[C@@H](C)O [Thiocillin I, thiocillin I] | 1.4 mg/kg |  |  |  |  |  | 
2 | 0.10 µg/mL (≈ 0.0851 µM) | 0.05 µg/mL (≈ 0.0426 µM) | C/C=C(/NC(=O)c1csc(-c2csc(-c3ccc4c(n3)-c3csc(n3)C(C(C)OC)NC(=O)c3csc(n3)C(C(C)(C)O)NC(=O)c3csc(n3)/C(=C\C)NC(=O)C(C(C)O)NC(=O)c3csc-4n3)n2)n1)C(=O)NCC(C)O (centres unmarked) [Thiocillin II, thiocillin II] | 2.2 mg/kg |  |  |  |  |  | 
3 |  |  | C/C=C(\NC(=O)c1csc(-c2csc(-c3ccc4c(n3)-c3csc(n3)C(C(C)O)NC(=O)c3csc(n3)C(C(C)(C)O)NC(=O)c3csc(n3)/C(=C\C)NC(=O)C(C(C)O)NC(=O)c3csc-4n3)n2)n1)C(=O)NCC(C)O (centres unmarked) [QN3323-Y1] |  | 2 µg/mL (≈ 1.72 µM) | 0.25 µg/mL (≈ 0.215 µM) | 0.25 µg/mL (≈ 0.215 µM) | 0.5 µg/mL (≈ 0.431 µM) | 0.25 µg/mL (≈ 0.215 µM) | 0.5 µg/mL (≈ 0.431 µM)

Row | Structure (SMILES) | MIC [2, 8] | MIC ([3]; E. faecium CAY09—2 (VRE)) | ED5O [1] | MIC ([2]; Staphylococcus aureus, MRSA) | MIC [4] | MIC [5] | MIC [6] | MIC ([3]; Enterococcus faecium, VRE) | MIC [7]
4 | C/C=C(\NC(=O)c1csc(-c2csc(-c3ccc4c(n3)-c3csc(n3)[C@H]([C@@H](C)O)NC(=O)c3csc(n3)[C@H](C(C)C)NC(=O)c3csc(n3)/C(=C/C)NC(=O)[C@H]([C@@H](C)O)NC(=O)c3csc-4n3)n2)n1)C(=O)NCC(C)=O [Micrococcin P2, micrococcin P2] | 0.78 µg/mL (≈ 0.683 µM) | 0.2 µg/mL (≈ 0.175 µM) |  |  |  |  |  |  | 
